The values below come from patent US20180160684A1 (priority 2015, published 2018).

Like-named read-outs stand apart in the source and are kept apart here.

The experiment relates to tomato late blight. The class given is in vivo, Phytophthora infestans.

As to `CC(C)(C)C(O)(CCc1ccc(Cl)cc1)Cn1cncn1` (stereo not drawn) [Tebuconazole, tebuconazole], the Control value by setting is: (tebuconazole 12.5 ppm alone (valifenalate 0 ppm)) 4; (tebuconazole 25 ppm alone (valifenalate 0 ppm)) 4; (tebuconazole 50 ppm alone (valifenalate 0 ppm)) 4; (tebuconazole 100 ppm alone (valifenalate 0 ppm)) 8.
With `CC1COC(Cn2cncn2)(c2ccc(Oc3ccc(Cl)cc3)cc2Cl)O1` (stereo not drawn) [Difenoconazole, difenoconazole], the Control value stood at 13 (difenoconazole 12.5 ppm alone (valifenalate 0 ppm)), 13 (difenoconazole 25 ppm alone (valifenalate 0 ppm)), 21 (difenoconazole 50 ppm alone (valifenalate 0 ppm)) and 25 (difenoconazole 100 ppm alone (valifenalate 0 ppm)).
As to `COc1cc(C)c(C(=O)c2c(OC)ncc(Cl)c2C)c(OC)c1OC` [Pyriofenone, pyriofenone], the Control value is reported as 0 (pyriofenone 12.5 ppm alone (valifenalate 0 ppm)), 0 (pyriofenone 25 ppm alone (valifenalate 0 ppm)), 0 (pyriofenone 50 ppm alone (valifenalate 0 ppm)) and 0 (pyriofenone 100 ppm alone (valifenalate 0 ppm)).
In the case of `Cc1cc(OC(C)C)ccc1C(=O)C(C)(C)NC(=O)c1sccc1C` [Isofetamid, isofetamid], the Control value is 0 (isofetamid 18.8 ppm alone (valifenalate 0 ppm)); 0 (isofetamid 37.5 ppm alone (valifenalate 0 ppm)); 0 (isofetamid 75 ppm alone (valifenalate 0 ppm)); 4 (isofetamid 150 ppm alone (valifenalate 0 ppm)); 8 (isofetamid 300 ppm alone (valifenalate 0 ppm)).
On to `COC(=O)CC(NC(=O)[C@@H](NC(=O)OC(C)C)C(C)C)c1ccc(Cl)cc1` (stereo partly drawn) [Valifenalate, valifenalate], for which the Control value runs as follows: (valifenalate 1.2 ppm alone (difenoconazole 0 ppm), Table 4) 46; (valifenalate 1.2 ppm alone (isofetamid 0 ppm), Table 1) 29; (valifenalate 1.2 ppm alone (pyriofenone 0 ppm), Table 2) 13; (valifenalate 2.3 ppm alone (difenoconazole 0 ppm), Table 4) 54; (valifenalate 2.3 ppm alone (isofetamid 0 ppm), Table 1) 42; (valifenalate 2.3 ppm alone (pyriofenone 0 ppm), Table 2) 25. Further, the Control value by setting is: (valifenalate 2.3 ppm alone (tebuconazole 0 ppm), Table 3) 33; (valifenalate 4.7 ppm alone (difenoconazole 0 ppm), Table 4) 58; (valifenalate 4.7 ppm alone (isofetamid 0 ppm), Table 1) 54; (valifenalate 4.7 ppm alone (pyriofenone 0 ppm), Table 2) 50; (valifenalate 4.7 ppm alone (tebuconazole 0 ppm), Table 3) 46; (valifenalate 9.4 ppm alone (difenoconazole 0 ppm), Table 4) 75. The Control value by setting is: (valifenalate 9.4 ppm alone (isofetamid 0 ppm), Table 1) 71; (valifenalate 9.4 ppm alone (pyriofenone 0 ppm), Table 2) 63; (valifenalate 9.4 ppm alone (tebuconazole 0 ppm), Table 3) 63; (valifenalate 18.8 ppm alone (isofetamid 0 ppm), Table 1) 75; (valifenalate 18.8 ppm alone (pyriofenone 0 ppm), Table 2) 79; (valifenalate 18.8 ppm alone (tebuconazole 0 ppm), Table 3) 67. The same compound had a Control value (valifenalate 37.5 ppm alone (tebuconazole 0 ppm), Table 3) of 72.
